Common to all, as to assay type: cell-based
In assay [1] the target is T1, BaF3 (EGFR/D770insSVD) (Homo sapiens, UniProt P00533, DUP768-770, cells depend on it).
T1 construct: Test 13 IC50 (nM); other: BaF3 (EGFR/D770insSVD), 72 hours, Cell Titer-Glo
Kind of assay: Test 13: EGFR exon 20 inserted D770insSVD cell proliferation test. The settings on record: BaF3 (EGFR/D770insSVD), 72 hours, Cell Titer-Glo; read-out: Test 13 IC50. The method, boiled down: (§1)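 BaF3 cells expressing EGFR D770insSVD, 3,000 cells/well, seeded overnight at 37° C, 5% CO2, then exposed to serially diluted compound for 72 h. Viable cells read by CellTiter-Glo luminescence; values from curve fitting.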
(In ATP-based viability assays light output follows the ATP content of the culture.)

The target in assay [2] is BaF3 (EGFR/A763insFQEA) (Homo sapiens, UniProt P00533, INS763FQEA, cells depend on it). Kind of assay: Test 14: EGFR exon 20 inserted A763insFQEA cell proliferation test. The settings on record: 72 hours, Cell Titer-Glo, read-out: Test 14 IC50. The method, then:
Test 14: EGFR Exon 20 Inserted A763insFQEA Cell Proliferation Test
(§2) The number of viable cells in the culture was measured according to the protocol described in Promega's Cell Titer-Glo Luminescent cell Viability Assay (Promega catalog number #G7570). 90 μl of cells (3,000 cells/well) were cultured in growth medium in a Corning black transparent bottom 96-well plate, and cultured in a 5% CO2 humidified incubator at 37° C. overnight. The compound serially diluted in 100% DMSO was added to the cells using a pipette, and the cells were incubated for another 72 hours. 100 μl of the mixed Cell Titer-Glo reagent was added to the cells in the 96-well culture plate to lyse the cells and mix gently. Subsequently, the […] was detected on the Envision microplate detector to obtain the data of each compound. Finally, the data was input into a suitable software package (such as Prism) for curve fitting analysis.

Assay [3] concerns the target BaF3 (EGFR/V769insASV) (Homo sapiens, UniProt P00533, DUP767-769, cells depend on it). Kind of assay: Test 15: EGFR exon 20 inserted V769insASV cell proliferation test. The following applies: 72 hours, Cell Titer-Glo, read-out: Test 15 IC50. The protocol: Test 15: EGFR Exon 20 Inserted V769insASV Cell Proliferation Test
as §2, with “(3000” for “(3,000”

Assay [4] addresses T2, BaF3 (EGFR/N771insH) (Homo sapiens, UniProt P00533, cells depend on it, form not given).
T2 construct: Test 16 IC50 (nM); other: BaF3 (EGFR/N771insH), 72 hours, Cell Titer-Glo
Nature of the assay: Test 16: EGFR exon 20 inserted N771insH cell proliferation test. The following applies: BaF3 (EGFR/N771insH), 72 hours, Cell Titer-Glo; read-out: Test 16 IC50.

In assay [5] the target is BaF3 (EGFR/D770insNPG) (Homo sapiens, UniProt P00533, cells depend on it, form not given). Nature of the assay: Test 17: EGFR exon 20 inserted D770insNPG cell proliferation test. The following applies: 72 hours, Cell Titer-Glo, read-out: Test 17 IC50. The method, then: Test 17: EGFR Exon 20 Inserted D770insNPG Cell Proliferation Test
as §2

Assay [6] concerns the target T3, BaF3 (EGFR/S768I) (Homo sapiens, UniProt P00533, cells depend on it, form not given).
T3 construct: other: EGFR S768I and EGFR L8
Kind of assay: Test 19: EGFR/S768I mutant cell line proliferation test. The settings on record: EGFR S768I and EGFR L861Q (tests 19-20), in words. The protocol: Test 19: EGFR/S768I Mutant Cell Line Proliferation Test
as §2

Assay [7] has as its system NCI-H1975 (EGFR L858R/T790M double mutant). Kind of assay: Test 1: EGFR L858R/T790M (EGFR double mutant) cell proliferation test. The settings on record: Homo sapiens; NCI-H1975 cells, 72 hours, Cell Titer-Glo. The protocol:
Test 1: EGFR L858R/T790M (EGFR Double Mutant) Cell Proliferation Test
The human lung cell line NCI-H1975 (EGFR L858R/T790M double mutant) was obtained from the American Type Culture Collection. NCI-H1975 cells were cultured in RPMI1640 medium containing 10% fetal bovine serum and 2 mM glutamine. The cells were grown at 37° C. in a humidified incubator with 5% CO2.
as §2, with “(8,000” for “(3,000”

In assay [8] the target is BaF3 (EGFR-D770insSVD) (Homo sapiens, UniProt P00533, DUP768-770, cells depend on it). Kind of assay: Test 2: BaF3 (EGFR-D770insSVD) cell proliferation test. The following applies: 72 hours, Cell Titer-Glo, read-out: Test 2 - IC50. The method, then:
Test 2: BaF3 (EGFR-D770insSVD) Cell Proliferation Test
BaF3 (EGFR-D770insSVD) was cultured in RPMI1640 medium containing 10% fetal bovine serum and 2 mM glutamine. The cells were grown at 37° C. in a humidified incubator with 5% CO2.
as §2

In assay [9] the target is BaF3 (EGFR-A763insFQEA) (Homo sapiens, UniProt P00533, INS763FQEA, cells depend on it). Kind of assay: Test 3: BaF3 (EGFR-A763insFQEA) cell proliferation test. The settings on record: 72 hours, Cell Titer-Glo, read-out: Test 3 - IC50. The method, then:
Test 3: BaF3 (EGFR-A763insFOEA) Cell Proliferation Test
BaF3 (EGFR-A763insFQEA) was cultured in RPMI1640 medium containing 10% fetal bovine serum and 2 mM glutamine. The cells were grown at 37° C. in a humidified incubator with 5% CO2.
as §2

Assay [10] has as its target BaF3 (EGFR-V769insASV) (Homo sapiens, UniProt P00533, DUP767-769, cells depend on it). Kind of assay: Test 4: BaF3 (EGFR-V769insASV) cell proliferation test. The settings on record: 72 hours, Cell Titer-Glo, read-out: Test 4 - IC50. The method, then:
Test 4: BaF3 (EGFR-V769insASV) Cell Proliferation Test
BaF3 (EGFR-V769insASV) was cultured in RPMI1640 medium containing 10% fetal bovine serum and 2 mM glutamine. The cells were grown at 37° C. in a humidified incubator with 5% CO2.
as §2

In assay [11] the target is BaF3 (EGFR-N771insH) (Homo sapiens, UniProt P00533, INS771H, cells depend on it). Kind of assay: Test 5: BaF3 (EGFR-N771insH) cell proliferation test. The settings on record: 72 hours, Cell Titer-Glo, read-out: Test 5 - IC50. The protocol: Test 5: BaF3 (EGFR-N771insH) Cell Proliferation Test
BaF3 (EGFR-N771insH) was cultured in RPMI1640 medium containing 10% fetal bovine serum and 2 mM glutamine. The cells were grown at 37° C. in a humidified incubator with 5% CO2.
as §2

Assay [12] deals with BaF3 (EGFR-D770insNPG) (Homo sapiens, UniProt P00533, INS772GNP, cells depend on it). Kind of assay: Test 6: BaF3 (EGFR-D770insNPG) cell proliferation test. The settings on record: 72 hours, Cell Titer-Glo, read-out: Test 6 - IC50. The protocol:
Test 6: BaF3 (EGFR-D770insNPG) Cell Proliferation Test
BaF3 (EGFR-D770insNPG) was cultured in RPMI1640 medium containing 10% fetal bovine serum and 2 mM glutamine. The cells were grown at 37° C. in a humidified incubator with 5% CO2.
as §2

The target of assay [13] is BaF3 (EGFR-S768I) (Homo sapiens, UniProt P00533, S768I, cells depend on it). Kind of assay: Test 7: BaF3 (EGFR-S768I) cell proliferation test. The following applies: 72 hours, Cell Titer-Glo, read-out: Test 7 - IC50. The method, then:
Test 7: BaF3 (EGFR-S768I) Cell Proliferation Test
BaF3 (EGFR-S768I) was cultured in RPMI1640 medium containing 10% fetal bovine serum and 2 mM glutamine. The cells were grown at 37° C. in a humidified incubator with 5% CO2.
as §2

Assay [14] has as its target BaF3 (EGFR-L861Q) (Homo sapiens, UniProt P00533, L861Q, cells depend on it). Kind of assay: Test 8: BaF3 (EGFR-L861Q) cell proliferation test. The settings on record: 72 hours, Cell Titer-Glo, read-out: Test 8 - IC50. The method, then:
Test 8: BaF3 (EGFR-L8610) Cell Proliferation Test
BaF3 (EGFR-L861Q) was cultured in RPMI1640 medium containing 10% fetal bovine serum and 2 mM glutamine. The cells were grown at 37° C. in a humidified incubator with 5% CO2.
as §2

Assay [15] addresses BaF3 (HER2-A775insYVMA) (Homo sapiens, UniProt P04626, DUP772-775, cells depend on it). Nature of the assay: Test 9: BaF3 (HER2-A775insYVMA) cell proliferation test. The settings on record: 72 hours, Cell Titer-Glo, read-out: Test 9 - IC50. The protocol:
Test 9: BaF3 (HER2-A775insYVMA) Cell Proliferation Test
BaF3 (HER2-A775insYVMA) was cultured in RPMI1640 medium containing 10% fetal bovine serum and 2 mM glutamine. The cells were grown at 37° C. in a humidified incubator with 5% CO2.
as §2

Assay [16] addresses BaF3 (HER2-P780insGSP) (Homo sapiens, UniProt P04626, DUP778-780, cells depend on it). Kind of assay: Test 10: BaF3 (HER2-P780insGSP) cell proliferation test. The settings on record: 72 hours, Cell Titer-Glo, read-out: Test 10 - IC50. The protocol: Test 10: BaF3 (HER2-P780insGSP) Cell Proliferation Test
BaF3 (HER2-P780insGSP) was cultured in RPMI1640 medium containing 10% fetal bovine serum and 2 mM glutamine. The cells were grown at 37° C. in a humidified incubator with 5% CO2.
as §2

Assay [17] addresses BaF3 (HER2-G776insVC) (Homo sapiens, UniProt P04626, cells depend on it, form not given). Nature of the assay: Test 11: BaF3 (HER2-G776insVC) cell proliferation test. The following applies: 72 hours, Cell Titer-Glo, read-out: Test 11 - IC50. The method, then: Test 11: BaF3 (HER2-G776insVC) Cell Proliferation Test
The engineered cell line BaF3 (HER2-G776insVC) was constructed by the inventor himself (for the method of cell line construction, see Jingrui Jiang et al., Cancer Res. 2005 Oct. 1; 65 (19): 8964-74; Jacqulyne P. Robichaux et al., Nat Med. 2018 May; 24 (5): 638-646). BaF3 (HER2-G776insVC) was cultured in RPMI1640 medium containing 10% fetal bovine serum and 2 mM glutamine. The cells were grown at 37° C. in a humidified incubator with 5% CO2.
as §2

Assay [18] deals with T4, BaF3 (EGFR/D770insSVD) (Homo sapiens, UniProt P00533, cells depend on it, form not given).
T4 construct: other: A763insFQEA, V769ins
Kind of assay: Test 13: EGFR exon 20 inserted D770insSVD cell proliferation test. The following applies: A763insFQEA, V769insASV, D770insSVD (tests 13-15), in words. The method, boiled down: as §1

Sequence of BaF3 (HER2-G776insVC) (P04626 with tags, fused parts or gaps DELINS776-776VC): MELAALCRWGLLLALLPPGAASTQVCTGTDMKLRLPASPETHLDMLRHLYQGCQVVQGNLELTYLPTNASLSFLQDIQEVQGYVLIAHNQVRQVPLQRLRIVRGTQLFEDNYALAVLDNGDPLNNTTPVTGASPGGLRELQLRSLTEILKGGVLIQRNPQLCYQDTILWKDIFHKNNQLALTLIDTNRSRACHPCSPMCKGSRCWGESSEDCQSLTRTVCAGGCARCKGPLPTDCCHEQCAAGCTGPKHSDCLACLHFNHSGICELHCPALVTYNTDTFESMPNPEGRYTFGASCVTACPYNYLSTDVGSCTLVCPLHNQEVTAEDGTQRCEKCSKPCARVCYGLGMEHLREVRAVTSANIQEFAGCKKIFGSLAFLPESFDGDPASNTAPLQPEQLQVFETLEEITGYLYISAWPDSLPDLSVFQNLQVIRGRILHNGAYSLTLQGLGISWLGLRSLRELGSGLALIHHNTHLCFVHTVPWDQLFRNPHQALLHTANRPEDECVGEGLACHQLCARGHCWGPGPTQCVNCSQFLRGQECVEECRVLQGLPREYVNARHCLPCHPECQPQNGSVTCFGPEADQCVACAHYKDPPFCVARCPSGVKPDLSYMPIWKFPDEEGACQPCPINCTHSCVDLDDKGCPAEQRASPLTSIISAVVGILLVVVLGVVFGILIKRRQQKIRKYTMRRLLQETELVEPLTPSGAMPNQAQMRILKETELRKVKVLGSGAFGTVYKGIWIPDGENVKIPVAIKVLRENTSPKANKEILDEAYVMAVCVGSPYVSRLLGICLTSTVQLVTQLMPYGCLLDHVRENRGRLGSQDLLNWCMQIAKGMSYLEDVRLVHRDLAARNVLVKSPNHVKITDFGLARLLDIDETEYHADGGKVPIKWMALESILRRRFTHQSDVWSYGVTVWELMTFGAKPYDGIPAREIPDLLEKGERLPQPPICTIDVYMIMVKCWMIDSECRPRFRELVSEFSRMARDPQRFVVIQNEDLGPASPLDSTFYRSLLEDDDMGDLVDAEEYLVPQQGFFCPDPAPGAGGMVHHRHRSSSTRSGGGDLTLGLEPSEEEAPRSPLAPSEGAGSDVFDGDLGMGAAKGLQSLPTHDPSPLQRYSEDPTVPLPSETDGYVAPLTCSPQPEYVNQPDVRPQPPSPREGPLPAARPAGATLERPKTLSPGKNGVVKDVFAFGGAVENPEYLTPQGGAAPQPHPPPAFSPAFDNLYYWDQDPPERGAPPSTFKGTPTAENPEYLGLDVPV
Sequence of BaF3 (HER2-P780insGSP) (P04626 with tags, fused parts or gaps DUP778-780): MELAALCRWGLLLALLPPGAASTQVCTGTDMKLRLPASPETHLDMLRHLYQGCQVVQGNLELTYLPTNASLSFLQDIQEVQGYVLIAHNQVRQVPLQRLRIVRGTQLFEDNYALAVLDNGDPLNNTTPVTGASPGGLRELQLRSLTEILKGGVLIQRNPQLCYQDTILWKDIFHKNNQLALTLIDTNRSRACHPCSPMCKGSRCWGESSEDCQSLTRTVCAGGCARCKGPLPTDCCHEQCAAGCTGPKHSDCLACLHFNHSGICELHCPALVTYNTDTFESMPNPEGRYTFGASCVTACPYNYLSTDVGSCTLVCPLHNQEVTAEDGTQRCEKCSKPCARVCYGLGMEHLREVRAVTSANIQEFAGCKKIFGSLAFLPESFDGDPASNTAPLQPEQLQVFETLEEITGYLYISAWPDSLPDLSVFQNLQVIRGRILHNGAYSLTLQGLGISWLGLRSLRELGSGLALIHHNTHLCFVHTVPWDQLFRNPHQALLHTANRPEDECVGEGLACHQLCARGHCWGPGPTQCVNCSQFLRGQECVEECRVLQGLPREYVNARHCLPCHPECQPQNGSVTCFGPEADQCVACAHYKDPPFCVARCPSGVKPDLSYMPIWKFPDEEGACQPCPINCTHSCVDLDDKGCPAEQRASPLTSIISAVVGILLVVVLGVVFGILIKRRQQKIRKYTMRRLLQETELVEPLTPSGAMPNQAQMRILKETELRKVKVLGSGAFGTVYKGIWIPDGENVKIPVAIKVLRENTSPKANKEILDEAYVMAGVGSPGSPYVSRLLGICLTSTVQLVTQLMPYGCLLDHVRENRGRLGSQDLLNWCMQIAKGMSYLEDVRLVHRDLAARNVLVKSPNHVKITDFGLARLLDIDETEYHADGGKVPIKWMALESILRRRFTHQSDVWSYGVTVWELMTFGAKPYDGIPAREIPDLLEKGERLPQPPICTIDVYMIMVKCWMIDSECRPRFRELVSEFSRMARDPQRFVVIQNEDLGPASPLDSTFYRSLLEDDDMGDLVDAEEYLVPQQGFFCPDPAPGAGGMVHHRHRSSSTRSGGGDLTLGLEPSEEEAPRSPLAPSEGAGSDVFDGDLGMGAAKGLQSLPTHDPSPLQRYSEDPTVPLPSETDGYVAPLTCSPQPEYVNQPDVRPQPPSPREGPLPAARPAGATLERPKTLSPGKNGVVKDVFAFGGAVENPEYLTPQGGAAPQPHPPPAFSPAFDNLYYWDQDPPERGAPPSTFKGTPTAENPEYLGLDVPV
Sequence of BaF3 (HER2-A775insYVMA) (P04626 with tags, fused parts or gaps DUP772-775): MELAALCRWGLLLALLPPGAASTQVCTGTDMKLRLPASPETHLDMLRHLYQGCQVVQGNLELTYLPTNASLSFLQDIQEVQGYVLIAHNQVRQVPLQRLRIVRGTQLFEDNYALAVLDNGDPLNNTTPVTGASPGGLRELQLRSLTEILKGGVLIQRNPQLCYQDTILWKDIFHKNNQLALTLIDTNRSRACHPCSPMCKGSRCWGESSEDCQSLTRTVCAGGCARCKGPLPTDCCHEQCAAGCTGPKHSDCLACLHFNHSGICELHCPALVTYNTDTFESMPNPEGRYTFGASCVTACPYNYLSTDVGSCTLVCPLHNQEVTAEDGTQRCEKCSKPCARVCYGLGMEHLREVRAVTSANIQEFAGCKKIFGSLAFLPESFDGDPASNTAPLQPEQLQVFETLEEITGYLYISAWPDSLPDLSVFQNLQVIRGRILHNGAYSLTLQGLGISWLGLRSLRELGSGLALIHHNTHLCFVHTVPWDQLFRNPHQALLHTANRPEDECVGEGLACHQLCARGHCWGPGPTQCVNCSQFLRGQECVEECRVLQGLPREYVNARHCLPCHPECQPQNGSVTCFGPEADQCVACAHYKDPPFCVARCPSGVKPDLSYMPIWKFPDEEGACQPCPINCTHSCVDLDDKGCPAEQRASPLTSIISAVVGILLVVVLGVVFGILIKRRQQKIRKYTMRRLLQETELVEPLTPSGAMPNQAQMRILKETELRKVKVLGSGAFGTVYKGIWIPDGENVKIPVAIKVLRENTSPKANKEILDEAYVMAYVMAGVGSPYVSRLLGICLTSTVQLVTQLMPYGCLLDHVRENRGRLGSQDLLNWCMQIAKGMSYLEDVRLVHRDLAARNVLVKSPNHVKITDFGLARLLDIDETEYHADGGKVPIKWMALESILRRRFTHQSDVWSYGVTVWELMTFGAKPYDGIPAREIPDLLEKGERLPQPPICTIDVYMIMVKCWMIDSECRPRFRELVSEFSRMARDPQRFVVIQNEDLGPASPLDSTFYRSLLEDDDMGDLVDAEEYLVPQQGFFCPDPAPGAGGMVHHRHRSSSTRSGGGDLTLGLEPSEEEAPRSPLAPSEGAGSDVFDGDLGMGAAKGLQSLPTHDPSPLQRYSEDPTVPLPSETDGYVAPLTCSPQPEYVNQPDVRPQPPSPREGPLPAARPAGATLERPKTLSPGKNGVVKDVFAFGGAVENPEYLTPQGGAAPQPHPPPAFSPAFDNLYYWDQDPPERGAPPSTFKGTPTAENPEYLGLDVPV

Take `C=CC(=O)Nc1cc(Nc2nccc(-c3cn(C)c4ccccc34)n2)c(OCC(F)(F)F)nc1N(C)CCN(C)C.CS(=O)(=O)O` [Compound 31, N-(2-((2-(dimethylamino)ethyl(methyl)amine)-5-((4-(1-methyl-1H-indol-3-yl)pyrimidine-2-yl)amino)-6-(2,2,2-trifluoroethoxy)pyridin-3-yl)acrylamide methanesulfonate]: the GI50 in [1] worked out at 45 nM; in assay [2], 13 nM; in assay [3] it was 28.4 nM; in [4] it was 9.43 nM; in assay [5], 4.58 nM.
As for `C=CC(=O)Nc1cc(Nc2nccc(-c3cn(C)c4ccccc34)n2)c(OCC(F)(F)F)nc1N(C)CCN(C)C.CS(=O)(=O)O` [Compound 31], in [6], the “activity compared with Osimertinib (AZD9291) against EGFR S768I and EGFR L861Q mutations” value is recorded as “superior activity over Osimertinib (AZD9291)”.
On the same count and under the same terms, under `C=CC(=O)Nc1cc(Nc2nccc(-c3cn(C)c4ccccc34)n2)c(OCC(F)(F)F)nc1N(C)CCN(C)C.Cl` [Compound 32] stands “superior activity over Osimertinib (AZD9291)”.
Consider `C=CC(=O)Nc1cc(Nc2ncnc(-c3cn(C)c4cc(Cl)c(OC)cc34)n2)c(OC)cc1N(C)CCN(C)C` [Example 10], for which the IC50 (usually the concentration that gives 50% inhibition) in assay [7] is 183 nM. In addition, the GI50 in assay [8] amounted to 566 nM; in [9], 183 nM; in assay [10], 466 nM; in assay [11] it was 146 nM; in [12], 181 nM; in [13], 44.5 nM. Also, the GI50 in [14] stood at 36.1 nM; in assay [15], 45.2 nM; in [16], 32.6 nM; in assay [17], 9.56 nM. Further, the “cell activity compared with Osimertinib (AZD9291) against EGFR exon 20 insertion mutations” value in assay [18] is “significant superior cell activity over Osimertinib (AZD9291)”.

These data come from patent publication US12258344B2, “Azaaromatic amide derivatives for the treatment of cancer” (SHENZHEN FORWARD PHARMACEUTICALS CO., LTD., priority 2019, dated 2025).
